Among the data in the Kinase Knowledgebase extract (Sharma et al. 2016) are IC50 values, retold here.

Where “and” joins values, the source holds several entries; their conditions need not be identical. Identical values can stand only once.

Chain of MAPK14 (human) (Q16539 whole entry, looked up): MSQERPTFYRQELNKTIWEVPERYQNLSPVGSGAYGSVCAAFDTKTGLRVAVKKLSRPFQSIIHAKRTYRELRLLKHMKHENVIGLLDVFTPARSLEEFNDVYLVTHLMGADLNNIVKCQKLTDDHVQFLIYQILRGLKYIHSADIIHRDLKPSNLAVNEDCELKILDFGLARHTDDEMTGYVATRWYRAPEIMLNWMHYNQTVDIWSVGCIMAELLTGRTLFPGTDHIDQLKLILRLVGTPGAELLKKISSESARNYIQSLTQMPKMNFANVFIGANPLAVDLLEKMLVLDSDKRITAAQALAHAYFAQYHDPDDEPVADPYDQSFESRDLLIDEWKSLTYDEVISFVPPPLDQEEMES

This test concerns the target MAPK14 (human) (UniProt Q16539). As to the kind of experiment: Inhibition of MAPK14 Kinase Activity.
As to `Cc1cc(-c2n[nH]c(C3CCN(C(=O)CO)CC3)c2-c2ccncn2)ccc1F`, the IC50 stood at 155 nM. In other words, the sub-micromolar range. Then `C[C@@H](N[C@H]1CC[C@H](c2[nH]nc(-c3ccc(Cl)cc3)c2-c2ccncn2)CC1)c1ccccc1`, with 8.56 nM; and `O=C(C1CCCO1)N1CCC(c2[nH]nc(-c3ccc(Cl)cc3)c2-c2ccncn2)CC1` (centres undefined), with 120 nM; and `CC(C)(C)OC(=O)N1CCC(c2[nH]nc(-c3ccc(Cl)cc3F)c2-c2ccnc(NC3CCCC3)n2)CC1`, with 10 nM. To `CC(C)(C)OC(=O)N1CCC(c2[nH]nc(-c3ccc(Cl)cc3)c2-c2ccnc(O[C@H]3CCOC3)n2)CC1` belongs 1680 nM; to `O=C(CO)N1CCC(c2[nH]nc(-c3ccc(F)c(C(F)(F)F)c3)c2-c2ccncn2)CC1`, 339 nM. For the compound `CC(=O)O[C@@H](C(=O)N1CCC(c2[nH]nc(-c3ccc(Cl)cc3)c2-c2ccncn2)CC1)c1ccccc1`, the IC50 stood at 572 nM. Then `Cc1cc(F)ccc1-c1n[nH]c(C2CCN(C(=O)CO)CC2)c1-c1ccncn1`, with 2680 nM; and `Clc1ccc(-c2n[nH]c([C@H]3CC[C@@H](NC4CCCCC4)CC3)c2-c2ccncn2)cc1`, with 235 nM. To `Fc1ccc(CN2CCC(c3[nH]nc(-c4ccc(Cl)cc4)c3-c3ccncn3)CC2)cc1` belongs 9.27 nM; to `O=C(CO)N1CCC(c2[nH]nc(-c3ccc(Cl)cc3)c2-c2ccnc(NC3CCCC3)n2)CC1`, 10 nM; to `CN(C)CCNc1nccc(-c2c(-c3ccc(F)c(C(F)(F)F)c3)n[nH]c2C2CCNCC2)n1`, 111 nM.

Consider `C[C@H](N[C@H]1CC[C@@H](c2[nH]nc(-c3ccc(Cl)cc3)c2-c2ccncn2)CC1)c1ccc(F)cc1`, for which the half-inhibitory concentration (IC50) was 130 nM and 61 nM. Then `O=C(CO)N1CCC(c2[nH]nc(-c3ccc(Cl)c(F)c3)c2-c2ccncn2)CC1`, with 455 nM; and `C[C@H](N[C@H]1CC[C@@H](c2[nH]nc(-c3ccc(Cl)cc3)c2-c2ccncn2)CC1)c1ccccc1`, with 112 nM and 44.9 nM. `C[C@@H](N[C@H]1CC[C@H](c2[nH]nc(-c3ccc(Cl)cc3)c2-c2ccncn2)CC1)c1ccc(F)cc1` had an IC50 of 5.76 nM. Regarding `CN(C)CCNc1nccc(-c2c(-c3ccc(Cl)cc3)n[nH]c2C2CCN(C(=O)CO)CC2)n1`, the IC50 was found to be 859 nM. On to `COc1ccc(-c2n[nH]c(C3CCN(C(=O)CO)CC3)c2-c2ccncn2)cc1OC`, for which the IC50 was over 100000 nM.

`CN(C)CCNc1nccc(-c2c(-c3ccc(Cl)cc3F)n[nH]c2C2CCN(C)CC2)n1` had an IC50 of 1000 nM.
